Earlier results on three compounds are cited in patent US20030143247A1, “Antiviral compositions and methods for identification and use” (priority 2002, published 2003).

The subject of data set [1] is HIV viral RNA region within the Rev-binding site. The note with it: Zapp et al., Cell 74, 1993.
Data set [2] concerns HCV. The note with it: various clinical trials.
The conditions of data set [3]: human, in vivo.

On to `NC[C@@H]1O[C@H](O[C@H]2[C@@H](O)[C@H](O[C@@H]3[C@@H](O)[C@H](N)C[C@H](N)[C@H]3O[C@H]3O[C@H](CN)[C@@H](O)[C@H](O)[C@H]3N)O[C@@H]2CO)[C@H](N)[C@@H](O)[C@@H]1O` [neomycin B], for which the “effect on Rev protein binding to HIV viral RNA” value in data set [1] was “blocks Rev protein binding”.

In the case of IFN-α, the “patients who initially responded to the therapy” value in data set [2] (patients treated with IFN-α) is given as “approximately 40%”. In addition, in data set [2] (share of the initial responders), the “initial responders who relapsed after the treatment ended” value is 70%.

On to `NC(=O)c1ncn([C@@H]2O[C@H](CO)[C@@H](O)[C@H]2O)n1` [ribavirin, 1-β-D-ribo-furanosyl-1,2,4-trizole-3-carboxamide], for which the side effect entry in data set [3] is “can cause hemolytic anemia”.
